Patent publication US20250213547A1, “METHODS OF TREATING NEUROLOGICAL DISEASES” (priority 2022, published 2025)

Experiments:
[1] = Adult DEE patients (Part A/Part B): safety and tolerability; settings: human, in vivo, 60 days
[2] = system: seizure frequency in pediatric patients with Dravet syndrome or Lennox-Gastaut syndrome; experiment: ELEKTRA: percent change in seizure frequency from baseline; format: in vivo, human; settings: for Number of patients with 25% reduction in seizures (responders) / Number of patients with 50% reduction in seizures (responders) / Number of patients with 75% reduction in seizures (responders) / Number of patients with 100% reduction in seizures (responders): maintenance period; for Median percent change in seizure frequency from baseline / Range of percent change in seizure frequency from baseline / seizure frequency change from baseline versus placebo: ELEKTRA; for Median percent change in seizure frequency from baseline / Range of percent change in seizure frequency from baseline: N 64; for seizure frequency change from baseline versus placebo: pediatric DEE patients
Text: Other inclusion criteria were body weight ≥10 kg, currently taking a fixed dosage of 1 to 4 antiseizure medications, and failure to remain seizure free after trying at least two antiseizure medications. Convulsive seizures include focal to bilateral tonic-clonic with impaired awareness, hemi-clonic, simultaneous bilateral clonic, and generalized tonic-clonic seizures. Drop seizures can involve the entire body, trunk, or head which leads to falling. […] Approximately 126 patients ages ≥2 and ≤17 years were enrolled in the study. The study included two main phases, a 4-6 week screening and baseline period, and a 20-week treatment period. Patients received doses twice a day in a tablet formulation. The starting dose was adjusted according to the patient's body weight (Table 17).
During the first 8 weeks of treatment patient dosing was a titrated for individual optimization. The remaining 12-weeks of treatment consisted of a maintenance phase. The study began with treating patients ≥9 years of age for one month before treating younger patients. Blood was collected for PK analysis on the first dosage day within one hour of the morning dose, and 30 minutes, and 1, 2, 3, and 4 hours post-dose. Subsequent blood sampling took place before the morning dose and 30 minutes post-dose. Blood samples were obtained at scheduled times for determining PK profile and Tmax, which is the time Cmax was reached. A patient's seizure frequency was recorded before and during the trial to calculate percent change from baseline.
The ELEKTRA study is described in the specification and in examples 12 and 13. […] Statistical significance was computed using a Rank Transformed Analysis of Covariance (ANCOVA) with a 2-side p-value, while adjusting for baseline seizure frequency and indication.

plasma 24HC = experiment: Healthy Japanese subjects, Part 2: plasma 24HC pharmacodynamics; format: in vivo, human
Method: TAK-935 or placebo was administered to the 9 subjects at the dose of 100 mg BID from Day 1 to Day 7, then 200 mg BID from Day 8 to Day 14, and finally 300 mg BID from Day 15 to Day 21, and safety, PK and PD were investigated. The planned dose levels of TAK-935 to be evaluated are outlined in Table 40a.
Blood samples for PD analysis of plasma 24HC level were collected into blood collection tubes (vacutainer) containing the anticoagulant K2EDTA.
The PD assessments described below were performed at the time points stipulated in the schedule of procedures. The additional PD endpoints included the following PD parameters for plasma 24HC: […]

[3] = Dravet syndrome, Weeks 9-20, N 24
[4] = Day 21 after 100 mg BID, 200 mg BID, and 300 mg BID, mean
[5] = multiple doses 100 mg BID, 200 mg BID, and 300 mg BID (Day 21), mean

Compound: O=C(c1cccnc1-c1ccncc1)N1CCC(O)(Cc2ccccc2)CC1 [soticlestat]
- Insomnia, n participants [1]: 3 n
- Lethargy, n participants [1]: 2 n
- Seizure, n participants [1]: 3 n
- Median percent change in convulsive seizure frequency per 28 days from baseline [2, 3]: −36.5%
- Range of percent change in convulsive seizure frequency per 28 days from baseline [2, 3]: (−100 to 84.1) %
- Number of patients with 25% reduction in seizures (responders) ([2]; Dravet syndrome, N 24): 66.7
- Number of patients with 50% reduction in seizures (responders) ([2]; Dravet syndrome, N 24): 41.7
- Number of patients with 75% reduction in seizures (responders) ([2]; Dravet syndrome, N 24): 20.8
- Number of patients with 100% reduction in seizures (responders) ([2]; Dravet syndrome, N 24): 8.3
- Median percent change in seizure frequency from baseline ([2]; Weeks 0-20): −30.05%
- Range of percent change in seizure frequency from baseline ([2]; Weeks 0-20): (−100-347.5) %
- Median percent change in seizure frequency from baseline ([2]; Weeks 9-20): −27.76%
- Range of percent change in seizure frequency from baseline ([2]; Weeks 9-20): (−100 to 160.6) %
- Median percent change from baseline in drop seizure frequency per 28 days ([2]; Lennox-Gastaut syndrome, Weeks 9-20, N 40): −18.46%
- Number of patients with 25% reduction in seizures (responders) ([2]; Lennox-Gastaut syndrome, N 40): 42.5
- Number of patients with 50% reduction in seizures (responders) ([2]; Lennox-Gastaut syndrome, N 40): 27.5
- Number of patients with 75% reduction in seizures (responders) ([2]; Lennox-Gastaut syndrome, N 40): 10
- Number of patients with 100% reduction in seizures (responders) ([2]; Lennox-Gastaut syndrome, N 40): 5
- seizure frequency change from baseline versus placebo [2]: highly significant
- seizure frequency change from baseline versus placebo ([2]; listed as Soticlestat): significantly decreased seizure frequency
- maximum mean decrease of trough plasma 24HC from time-matched baseline (plasma 24HC; Day 21, up-titration to 300 mg BID): about 88%
- AUEC24 of plasma 24HC (plasma 24HC; [4]): 124.2 ng·h/mL
- AVECτ of plasma 24HC (AUEC during a dosing interval) (plasma 24HC; [4]): 61.28 ng·h/mL
- E12 of plasma 24HC (observed effect at 12 hours) (plasma 24HC; [4]): 5.443 ng/mL
- E24 of plasma 24HC (observed effect at 24 hours) (plasma 24HC; [4]): 5.013 ng/mL
- Emax of plasma 24HC (plasma 24HC; [4]): 4.640 ng/mL
- Time to Emax of plasma 24HC (plasma 24HC; Day 21 after 100 mg BID, 200 mg BID, and 300 mg BID, median): 6.000 h
- Emax (plasma 24HC; Homo sapiens, 504 h, multiple doses 100 mg BID, 200 mg BID, and 300 mg BID (Day 21), mean, read-out: % change from Baseline in Emax of plasma 24HC): -86.7%
- % change from Baseline in AUEC24 of plasma 24HC (plasma 24HC; [5]): −86.75%
- % change from Baseline in AUECτ of plasma 24HC (plasma 24HC; [5]): −86.62%
- % change from Baseline in E12 of plasma 24HC (plasma 24HC; [5]): −85.83%
- % change from Baseline in E24 of plasma 24HC (plasma 24HC; [5]): −87.67%
